Consider 3 molecules from patent EP0005055A2, “6,11-Dihydrodibenzo-thiepin-11-ones and their S-oxides, methods for their preparation and pharmaceutical compositions containing them” (SYNTEX (U.S.A.) INC., priority 1978, dated 1979).

The term LD50 denotes the dose expected to kill half of the subjects tested. Read a high LD50 as lower toxicity.

One series relates to Albino rats. In words: Heat Induced Dermal Trauma Assay. Conditions: topical in ethanol, treatment 0 post burn, skin disc weighed 3 hours later, 6 rats, control 500.7±13.6. The class given is in vivo. The method, then:
A) Heat Induced Dermal Trauma Assay ,
Test Animal: Albino rats, 120-140 g.
Procedure: The ventral area of the rats is shaved and depilated with a commercially available depilatory on the afternoon of the day prior to trauma. (The depilatory is applied for 15 minutes and then removed by washing with water.) The following day, a 25 mm diameter circle is traced on the abdomen beneath the sternum with a colored pen. A brass stamp of the same size, through which hot water (53°C) is circulated, is firmly applied to the center of the colored outline for 45 seconds while the rats are lightly anesthetized with ether. The test materials in ethanol are administered topically to the tramatized area immediately after withdrawing the stamp. The animals are sacrificed 3 hours later, at which time the ventral skin is removed and a piece of skin form the center of the marked area is punched out with a No. 10 cork bore and weighed.
End Point: The weight in mg of the inflammed piece of skin which is removed from the marked area with the cork bore.

Series [1] can be described thus: Mouse Acute Oral Toxicity (LD50). Conditions: in vivo, oral by stomach tube, single dose, mice observed for deaths over 14 days. Here is the method:
B) Mouse Acute Oral Toxicity (LD50)
Protocol: The test material is suspended in an aqueous vehicle containing carboxymethyl cellulose. A volume of 10 ml/kg body weight is used for each dose. The test material is given orally by stomach tube to 24 male Swiss-Webster mice, 6 per group, on the first day of the test, using doses of 250, 500, 1000 and 2000 mg./kg. body weight of test compound. Another group of 6 mice, receiving the vehicle only, serve as the control. The mice are observed for deaths over a 14-day period.

As for `COc1ccc2c(c1)CSc1cc(CC(=O)O)ccc1C2=O` [8-methoxy-6,11-dihydro-dibenzo-[b.e.]-thiepin-11-one-3-acetic acid], the “Mean Disc. Wt. mg.± S.E.” value turned out to be 279.6 ± 13.17 mg with Albino rats (dose 0.006 mg.), 241.6 ± 7.56 mg with Albino rats (dose 0.025 mg.), 197.5 ± 25.07 mg in the series on Albino rats (dose 0.1 mg.) and 177.9 ± 18.98 mg with Albino rats (dose 0.4 mg.).
As for `O=C(O)Cc1ccc2c(c1)SCc1cc(Cl)ccc1C2=O` [8-chloro-6,11-dihydrodibenzo-[b.e.]-thiepin-11-one-3-acetic acid], the “Mean Disc. Wt. mg.± S.E.” value with Albino rats (dose 0.006 mg.) was 296.8 ± 21.8 mg; in the series on Albino rats (dose 0.025 mg.) it was 218.8 ± 6.5 mg; with Albino rats (dose 0.1 mg.) it was 201.4 ± 12.0 mg; in the series on Albino rats (dose 0.4 mg.), 147.2 ± 10.2 mg. For the same molecule, the LD50 at 336 h in series [1] was approximately 300 mg/kg.
Take `O=C(O)Cc1ccc2c(c1)[S+]([O-])Cc1ccccc1C2=O` (stereo not shown) [6,11-dihydrodibenzo-[b.e]-thiepin-11-one-3-acetic S-oxide]: the LD50 at 336 h in series [1] is more than 2000 mg/kg.
